The values below come from patent US12521439B2, “Methods and materials for modulating Nrf2 pathway” (The General Hospital Corporation, priority 2019, dated 2026).

In test [1] the test system is U87 glioma cells. Kind of test: Cell viability (CellTiter-Glo), U87. It counts as cell-based, human. As to conditions: shKeap1 vs shCtr1, four days. As for the experimental part:
Cell culture: MDA-MB-231 and U87 (U87-MG) cells were obtained from the American Type Culture Collection (ATCC). 293T human embryonic kidney fibroblasts were provided by Dr. Xandra Breakefield (Massachusetts General Hospital). All three cell lines were grown in Dulbecco's modified Eagle medium supplemented with 10% fetal bovine serum (Gemini Bio-products), 100 U penicillin, and 0.1 mg/mL streptomycin (Sigma). All cells were maintained at 37° C. in a humidified 5% CO2 incubator. GSCs were obtained from tumor tissues of GBM patients following surgical resection, under approval from the corresponding Institutional Review Board. These cells have been previously characterized (ref. 37-39) and were maintained in culture as neurospheres in Neurobasal medium (Gibco) supplemented with heparin (2 μg/mL; Sigma) and recombinant EGF (20 ng/mL) and bFGF-2 (10 ng/mL; Peprotech). Human Astrocytes were obtained from ScienCell and cultured in Astrocytes Medium (ScienCell)
(§1) Cell viability: Cells were plated in 96-well plates and treated with the corresponding compounds. Cell viability was measured by adding 25 μl/well of CellTiter-Glo (Promega) followed by 10 minutes incubation and transfer to a white 96-well plate. Bioluminescence was quantified using Synergy HTX multimode reader (Biotek).
A general note: Cellular ATP, detected with luciferase, serves as a proxy for viable cell number.

Test [2] deals with T1, bovine catalase (Bos taurus, UniProt P00432).
T1 construct: purchased Sigma-Aldrich
T1 sequence (P00432 1-527): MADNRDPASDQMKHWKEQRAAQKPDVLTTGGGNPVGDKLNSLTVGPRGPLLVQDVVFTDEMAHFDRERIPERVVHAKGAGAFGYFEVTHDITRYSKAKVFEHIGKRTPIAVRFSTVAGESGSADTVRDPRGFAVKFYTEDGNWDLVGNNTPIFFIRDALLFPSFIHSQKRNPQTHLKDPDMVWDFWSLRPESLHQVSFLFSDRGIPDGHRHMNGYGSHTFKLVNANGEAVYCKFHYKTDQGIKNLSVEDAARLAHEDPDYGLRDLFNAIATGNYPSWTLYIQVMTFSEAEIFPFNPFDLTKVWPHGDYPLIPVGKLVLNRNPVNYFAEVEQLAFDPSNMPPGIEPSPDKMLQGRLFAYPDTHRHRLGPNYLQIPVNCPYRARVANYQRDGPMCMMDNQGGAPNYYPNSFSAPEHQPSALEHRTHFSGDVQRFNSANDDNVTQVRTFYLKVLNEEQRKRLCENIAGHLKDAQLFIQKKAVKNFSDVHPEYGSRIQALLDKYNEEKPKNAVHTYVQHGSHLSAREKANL
The experiment in a line: Differential alkylation mass spectrometry, catalase. It counts as binding. As for the experimental part: Differential Alkylation for OBT Binding Characterization: 10 μg of bovine catalase (Sigma-Aldrich) were suspended in 100 μl of 50 mM HEPES (pH 8.5)/0.5% SDS and OBT, iodoacetamide (IAA), or N-ethylmaleimide (NEM) was added to a final concentration of 5 mM and the mixtures were incubated for 30 min at RT in the dark before adding IAA to all three reactions to a final concentration of 10 mM in the sample treated with IAA in the first alkylation step, and of 5 mM in the other two samples. Upon incubation at RT for 30 min in the dark dithiothreitol (DTT) was added to all reaction to a final concentration of 20 mM and the reactions were first incubated at RT in the dark for 15 min and then at 56° C. for 30 min. Then, NEM was added to all reactions to a final concentration of 100 mM followed by incubation at RT in the dark for 30 min. The experiments were done in triplicate. Samples were analyzed by mass spectrometry as described below.
Quantitative Proteomics: Cell pellets were lysed in a buffer of 75 mM NaCl, 50 mM HEPES pH 8.5, 10 mM sodium pyrophosphate, 10 mM sodium fluoride, 10 mM β-glycerophosphate, 10 mM sodium orthovanadate, 10 mM PMSF, Roche complete mini EDTA free protease inhibitors (1 tablet per 20 ml), and 3% SDS. Lysis was achieved by passing the suspension through a 21-gauge needle 20 times. Proteins were prepared for proteomics analysis as described previously. […] Twelve fractions were analyzed by multiplexed quantitative proteomics performed on an Orbitrap Fusion mass spectrometer (Thermo Scientifc) using a Simultaneous Precursor Selection (SPS) based MS3 method. […] For the cell line samples only MS3 with an average signal-to-noise value of larger than 40 per reporter ion as well as with an isolation specificity of larger than 0.75 were considered for quantification. […] A two-step normalization of the protein TMT-intensities was performed by first normalizing the protein intensities over all acquired TMT channels for each protein based on the median average protein intensity calculated for all proteins. […]

Test [3] deals with cancer cells. Kind of test: Cancer cell death with OBT, JQ1, OBT-JQ1. It counts as cell-based. The settings on record: OBT combined with JQ1, FIG. 22. As for the experimental part: as §1
Where [4] appears, read: 2-fold excess of DTT over alkylating reagents.

As to `COC1=CC(=O)C(O)=C/C1=C/C=C/c1ccccc1` [OBT, (Z)-2-hydroxy-5-methoxy-4-((E)-3-phenylallylidene)cyclohexa-2,5-dien-1-one], in test [1], the “cell death after silencing of Keap1” value is “decreased cell death”. For the same compound, the “binding to cysteine residues of bovine catalase” value in test [2] (5 mM OBT, differential alkylation) is on record as “binds to all detected peptides with cysteine residues”. Also, in test [2] (setting [4]), the “binding type at Cys-232 and Cys-460” value is on record as “tight or irreversible binding”; the “binding type at Cys-377” value was “reversible binding”. For the same compound, in test [3], the “interaction with JQ1” value is “synergizes”.
